Columns and labels:
AtEPSPS = biological target: T1, AtEPSPS (Arabidopsis thaliana, UniProt P05466); assay: dose-response of enzyme activity, phosphate release by malachite green; assay type: biochemical
T1 construct: gene At2g45300; codon-optimised synthetic gene, E. coli BL21(DE3); His-tag removed with 3C protease; IMAC and SEC
T1 sequence (P05466 77-520): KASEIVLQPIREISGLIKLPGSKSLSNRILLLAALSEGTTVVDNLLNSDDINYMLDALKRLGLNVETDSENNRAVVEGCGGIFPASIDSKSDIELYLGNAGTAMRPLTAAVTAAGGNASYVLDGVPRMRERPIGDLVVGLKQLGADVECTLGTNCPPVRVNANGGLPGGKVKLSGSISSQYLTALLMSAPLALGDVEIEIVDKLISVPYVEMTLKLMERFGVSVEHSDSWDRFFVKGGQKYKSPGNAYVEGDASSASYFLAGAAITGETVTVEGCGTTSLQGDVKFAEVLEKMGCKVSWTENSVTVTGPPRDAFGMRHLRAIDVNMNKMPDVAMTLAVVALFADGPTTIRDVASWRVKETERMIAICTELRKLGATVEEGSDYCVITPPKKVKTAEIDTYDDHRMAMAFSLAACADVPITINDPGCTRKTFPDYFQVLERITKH

MpEPSPS = biological target: T2, MpEPSPS (Marchantia polymorpha, UniProt A0A2R6X5Y9); assay: as above; assay type: biochemical
T2 construct: gene MARPO_0034s0104; codon-optimised synthetic gene, E. coli BL21(DE3); His-tag removed with 3C protease; IMAC and SEC
T2 sequence (A0A2R6X5Y9 79-527): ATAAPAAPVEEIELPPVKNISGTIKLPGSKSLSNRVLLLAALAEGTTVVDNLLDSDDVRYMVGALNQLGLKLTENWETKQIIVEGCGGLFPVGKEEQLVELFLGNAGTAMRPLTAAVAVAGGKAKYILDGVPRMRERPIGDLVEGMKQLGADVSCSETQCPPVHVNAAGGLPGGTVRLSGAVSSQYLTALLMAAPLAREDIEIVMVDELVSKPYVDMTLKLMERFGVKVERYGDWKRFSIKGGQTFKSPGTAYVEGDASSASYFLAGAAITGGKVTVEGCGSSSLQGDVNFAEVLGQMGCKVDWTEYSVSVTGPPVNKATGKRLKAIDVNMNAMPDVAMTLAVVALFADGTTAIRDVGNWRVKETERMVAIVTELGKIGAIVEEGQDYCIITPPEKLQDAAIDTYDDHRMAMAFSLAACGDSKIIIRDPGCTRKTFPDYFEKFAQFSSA

MpMurA [1] = biological target: T3, MpMurA (Marchantia polymorpha, UniProt A0A2R6X746); assay: phosphate release by malachite green; EPSP product by LC-MS/MS; assay type: biochemical; settings: 1 mM S3P, 1 mM PEP; pH 7.5, 25 °C
T3 construct: gene MARPO_0032s0102; codon-optimised synthetic gene, E. coli BL21(DE3); His-tag removed with 3C protease; IMAC and SEC
T3 sequence (A0A2R6X746 46-482): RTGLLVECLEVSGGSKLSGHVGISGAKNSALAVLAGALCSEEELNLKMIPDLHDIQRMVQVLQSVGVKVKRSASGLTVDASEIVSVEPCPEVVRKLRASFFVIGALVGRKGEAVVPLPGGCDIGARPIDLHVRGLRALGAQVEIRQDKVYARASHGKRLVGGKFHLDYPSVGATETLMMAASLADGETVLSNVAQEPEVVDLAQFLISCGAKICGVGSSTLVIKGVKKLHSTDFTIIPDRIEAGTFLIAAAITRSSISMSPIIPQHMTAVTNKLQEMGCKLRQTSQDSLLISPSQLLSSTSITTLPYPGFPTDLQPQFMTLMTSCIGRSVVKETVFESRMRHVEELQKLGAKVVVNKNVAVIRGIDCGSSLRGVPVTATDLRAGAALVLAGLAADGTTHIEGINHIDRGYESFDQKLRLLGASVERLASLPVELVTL
From the text: phosphate release by malachite green; EPSP product by LC-MS/MS on MpMurA | Phosphate was produced by MpMurA in the presence of […] and PEP

MpMurA [2] = biological target: T3, MpMurA; assay: phosphate release by malachite green; assay type: biochemical; settings: 1 mM UDP-GlcNAc, 1 mM PEP; pH 7.5, 25 °C
purified protein = substrate: C=C(OP(=O)(O)O)C(=O)O; assay: purified protein; settings: co-substrate S3P, pH 7.5, 25 °C
[3] = substrate: O=C(O)C1=C[C@@H](OP(=O)(O)O)[C@@H](O)[C@H](O)C1; assay: Michaelis-Menten kinetics, phosphate release by malachite green; assay type: biochemical, Arabidopsis thaliana; settings: co-substrate PEP, pH 7.5, 25 °C
[4] = substrate: C=C(OP(=O)(O)O)C(=O)O; assay: as above; assay type: biochemical, Marchantia polymorpha; settings: co-substrate S3P, pH 7.5, 25 °C
[5] = substrate: O=C(O)C1=C[C@@H](OP(=O)(O)O)[C@@H](O)[C@H](O)C1; assay: as above; assay type: biochemical, Marchantia polymorpha; settings: co-substrate PEP, pH 7.5, 25 °C

O=C(O)CNCP(=O)(O)O [glyphosate]
IC50 (AtEPSPS): 14.5 ± 5.98 µM
IC50 (MpEPSPS): 9.6 ± 9.12 µM

O=C(O)C1=C[C@@H](OP(=O)(O)O)[C@@H](O)[C@H](O)C1 [S3P]
phosphate release by malachite green; EPSP product by LC-MS/MS (MpMurA [1]): Phosphate was produced by MpMurA in the presence of S3P and PEP

CC(=O)N[C@H]1[C@@H](OP(=O)(O)OP(=O)(O)OC[C@H]2O[C@@H](n3ccc(=O)[nH]c3=O)[C@H](O)[C@@H]2O)O[C@H](CO)[C@@H](O)[C@@H]1O [UDP-GlcNAc]
phosphate release by malachite green (MpMurA [2]): the activity of MpMurA with its canonical substrates, UDP-GlcNAc and PEP, were measured

B1: AtEPSPS (Arabidopsis thaliana) (protein)
chain: T1 sequence (P05466 77-520)
notes: codon-optimised synthetic gene, E. coli BL21(DE3); His-tag removed with 3C protease; IMAC and SEC
Km (purified protein): 0.163 ± 0.034 mM
Km [3]: 0.1967 ± 0.04463 mM

B2: MpEPSPS (Marchantia polymorpha) (protein)
chain: T2 sequence (A0A2R6X5Y9 79-527)
notes: as for B1
Km [4]: 0.180 ± 0.026 mM
Km [5]: 0.1197 ± 0.01282 mM

From publication PMC11588093, “MurA-catalyzed synthesis of 5-enolpyruvylshikimate-3-phosphate confers glyphosate tolerance in bryophytes” (Proceedings of the National Academy of Sciences of the …, 2024)
